Reference: CN110698367A, “一种n-(1-取代萘基)-4-甲氧基苯磺酰胺类化合物及其制备和应用” (Wenzhou Medical University, priority 2019, dated 2020)

Columns and labels:
[1] = test system: upstream kinase JAK [上游激酶JAK]; conditions: background statement; in words; cited from earlier work
[2] = target: upstream kinase Src [上游激酶JAK或Src] (Homo sapiens, UniProt P12931); conditions: background statement; in words; cited from earlier work
[3] = test system: STAT3 phosphorylation [STAT3的磷酸化]; conditions: background statement; in words; cited from earlier work
[4] = test system: STAT1 phosphorylation [STAT1的磷酸化]; conditions: background statement; in words; cited from earlier work
tumour cells [肿瘤细胞] = conditions: background statement, in words; cited from earlier work
[5] = test system: breast cancer cells MDA-MB-231 [乳腺癌细胞MDA-MB-231]; assay: MTT antiproliferation assay, MDA-MB-231; assay type: cell-based; conditions: Homo sapiens, 48 h
[6] = test system: colon cancer cells HCT-116 [结肠癌细胞HCT-116]; assay: MTT antiproliferation assay, HCT-116; assay type: cell-based; conditions: Homo sapiens, 48 h
[7] = test system: non-small cell lung cancer cells A549 [非小细胞肺癌细胞A549]; assay: MTT antiproliferation assay, A549; assay type: cell-based; conditions: Homo sapiens, 48 h

upstream kinase Src [上游激酶JAK或Src], sequence (P12931 whole entry): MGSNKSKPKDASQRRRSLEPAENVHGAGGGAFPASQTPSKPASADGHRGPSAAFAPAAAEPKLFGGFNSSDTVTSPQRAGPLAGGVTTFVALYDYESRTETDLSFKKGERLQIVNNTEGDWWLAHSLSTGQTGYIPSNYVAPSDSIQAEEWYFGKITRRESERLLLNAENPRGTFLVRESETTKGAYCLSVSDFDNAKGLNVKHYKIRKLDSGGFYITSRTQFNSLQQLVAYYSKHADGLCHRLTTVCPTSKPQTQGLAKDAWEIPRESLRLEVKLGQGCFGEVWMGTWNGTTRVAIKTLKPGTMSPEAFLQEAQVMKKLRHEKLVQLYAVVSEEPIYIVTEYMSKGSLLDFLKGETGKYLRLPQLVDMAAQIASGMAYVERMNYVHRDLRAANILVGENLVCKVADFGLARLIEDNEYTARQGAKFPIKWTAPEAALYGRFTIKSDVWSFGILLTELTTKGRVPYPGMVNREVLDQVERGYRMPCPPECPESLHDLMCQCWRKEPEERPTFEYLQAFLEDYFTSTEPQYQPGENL

SMILES	inhibition of upstream kinase JAK [1]	inhibition of upstream kinase Src [2]	inhibition of STAT3 phosphorylation [3]	inhibition of STAT1 phosphorylation [4]	IC50 (tumour cells [肿瘤细胞])	IC50 [5] [µM]	IC50 [6] [µM]	IC50 [7] [µM]
COc1ccc(S(=O)(=O)Nc2cc(-c3c(O)ccc4ccccc34)c(O)c3ccccc23)cc1 [C188-9]	无明显抑制作用	无明显抑制作用	能抑制STAT3的磷酸化	有一定的抑制作用	较高			
COc1ccc(S(=O)(=O)Nc2ccc(-c3ccc(C#N)c(F)c3)c3ccccc23)cc1 [VI 10]						5.88	4.83	4.46
